Values quoted from earlier work, collected in PMC4447334 (Journal of the American Chemical Society, 2015).

Tests used:
PAD3 = molecular target: T1, PAD3 (Homo sapiens, UniProt Q9ULW8); conditions: exact value reported
T1 sequence (Q9ULW8 1-664): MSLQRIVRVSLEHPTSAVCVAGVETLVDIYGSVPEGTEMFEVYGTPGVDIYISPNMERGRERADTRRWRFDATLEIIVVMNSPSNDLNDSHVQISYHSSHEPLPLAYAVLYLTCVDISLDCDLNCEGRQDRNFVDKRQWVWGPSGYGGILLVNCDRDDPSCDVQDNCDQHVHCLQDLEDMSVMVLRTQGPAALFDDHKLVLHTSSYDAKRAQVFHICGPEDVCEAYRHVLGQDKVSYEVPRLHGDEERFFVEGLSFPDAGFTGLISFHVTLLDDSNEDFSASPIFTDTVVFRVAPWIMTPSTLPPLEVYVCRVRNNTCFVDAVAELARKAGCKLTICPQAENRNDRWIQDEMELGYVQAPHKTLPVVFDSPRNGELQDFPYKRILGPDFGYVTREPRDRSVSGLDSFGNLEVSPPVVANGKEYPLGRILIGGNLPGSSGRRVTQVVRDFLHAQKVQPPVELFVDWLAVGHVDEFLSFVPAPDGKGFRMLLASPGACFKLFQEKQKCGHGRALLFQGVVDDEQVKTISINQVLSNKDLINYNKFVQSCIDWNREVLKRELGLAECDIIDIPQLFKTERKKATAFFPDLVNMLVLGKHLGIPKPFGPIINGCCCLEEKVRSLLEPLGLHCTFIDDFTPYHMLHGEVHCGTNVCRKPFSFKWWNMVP

PAD1 = molecular target: T2, PAD1 (Homo sapiens, UniProt Q9ULC6); conditions: approximate, from chart in Figure 6A
T2 sequence (Q9ULC6 1-663): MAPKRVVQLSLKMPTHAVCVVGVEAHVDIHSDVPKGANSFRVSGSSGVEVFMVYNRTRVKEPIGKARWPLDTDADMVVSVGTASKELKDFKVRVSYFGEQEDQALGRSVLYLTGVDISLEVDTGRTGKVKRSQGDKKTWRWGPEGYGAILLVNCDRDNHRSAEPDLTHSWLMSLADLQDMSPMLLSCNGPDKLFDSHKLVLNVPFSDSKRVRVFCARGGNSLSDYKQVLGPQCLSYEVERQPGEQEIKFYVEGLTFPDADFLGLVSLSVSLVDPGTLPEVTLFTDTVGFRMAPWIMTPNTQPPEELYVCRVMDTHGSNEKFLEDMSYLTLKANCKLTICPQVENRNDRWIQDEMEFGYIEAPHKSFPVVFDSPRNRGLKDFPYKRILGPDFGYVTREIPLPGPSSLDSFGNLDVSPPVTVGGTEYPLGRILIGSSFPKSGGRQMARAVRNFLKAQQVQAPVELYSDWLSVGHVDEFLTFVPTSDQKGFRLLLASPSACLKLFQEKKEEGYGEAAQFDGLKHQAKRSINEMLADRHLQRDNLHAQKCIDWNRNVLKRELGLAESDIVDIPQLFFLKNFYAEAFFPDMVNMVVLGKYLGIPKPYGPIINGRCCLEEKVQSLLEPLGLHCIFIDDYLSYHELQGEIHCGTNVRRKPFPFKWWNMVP

PAD4 = PAD4 (Homo sapiens, UniProt Q9UM07); conditions: approximate, from chart in Figure 6A
PAD4, sequence (Q9UM07 whole entry): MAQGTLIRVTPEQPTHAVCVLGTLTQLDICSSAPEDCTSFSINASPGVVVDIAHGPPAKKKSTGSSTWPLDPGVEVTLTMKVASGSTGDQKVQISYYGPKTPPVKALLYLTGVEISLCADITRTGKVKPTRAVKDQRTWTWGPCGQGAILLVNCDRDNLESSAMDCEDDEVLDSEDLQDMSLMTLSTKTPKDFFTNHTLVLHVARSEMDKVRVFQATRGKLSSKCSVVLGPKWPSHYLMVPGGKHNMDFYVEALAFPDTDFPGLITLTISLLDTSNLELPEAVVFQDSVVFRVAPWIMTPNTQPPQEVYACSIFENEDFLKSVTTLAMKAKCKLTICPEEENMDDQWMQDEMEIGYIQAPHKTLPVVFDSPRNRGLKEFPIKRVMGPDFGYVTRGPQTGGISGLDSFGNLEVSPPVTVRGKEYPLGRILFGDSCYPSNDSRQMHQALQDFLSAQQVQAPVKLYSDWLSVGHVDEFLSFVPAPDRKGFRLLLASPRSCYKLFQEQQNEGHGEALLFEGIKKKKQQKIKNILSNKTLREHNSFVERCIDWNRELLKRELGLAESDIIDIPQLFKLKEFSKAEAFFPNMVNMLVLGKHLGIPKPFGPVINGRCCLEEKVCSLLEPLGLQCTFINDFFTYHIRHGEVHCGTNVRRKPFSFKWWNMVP

N=C(CF)NCCCC[C@H](NC(=O)c1ccccc1)C(N)=O [F4-amidine]
IC50 (PAD3): 65 µM | IC50 (PAD1): ~250 µM | IC50 (PAD4): ~625 µM
